These results are taken from doi:10.1101/2025.01.28.635346v1 (bioRxiv, 2025).

The target of assay [1] is T1, integrin αvβ8 (Homo sapiens, UniProt P06756+P26012). Nature of the assay: AlphaLISA competition assay vs LAP, biotinylated αvβ8. The assay is classed as binding. In general terms: Alpha assays give light when donor and acceptor beads are brought close together.
For assay [2], the target named is T2, integrin αvβ6 (Homo sapiens, UniProt P06756+P18564). Nature of the assay: AlphaLISA competition assay vs LAP, biotinylated αvβ6. It is filed as binding.
In assay [3] the target is T3, integrin αvβ3 (Homo sapiens, UniProt P05106+P06756). The assay is described as follows: AlphaLISA competition assay vs LAP, biotinylated αvβ3. It is filed as binding.
Assay [4] has as its target T1, integrin αvβ8. The assay is described as follows: ELISA competition assay, integrin αvβ8 binding to LAP. In general terms: An ELISA detects its analyte on a solid surface through an enzyme-linked reagent.
A further assay deals with integrin α8β1 (Homo sapiens, UniProt P05556+P53708). The assay is described as follows: ELISA competition assay, integrin α8β1. It is filed as binding.
A further assay has as its target T4, integrin αIIbβ3 (Homo sapiens, UniProt P05106+P08514).
T4 sequence (P08514 32-993 limits assumed): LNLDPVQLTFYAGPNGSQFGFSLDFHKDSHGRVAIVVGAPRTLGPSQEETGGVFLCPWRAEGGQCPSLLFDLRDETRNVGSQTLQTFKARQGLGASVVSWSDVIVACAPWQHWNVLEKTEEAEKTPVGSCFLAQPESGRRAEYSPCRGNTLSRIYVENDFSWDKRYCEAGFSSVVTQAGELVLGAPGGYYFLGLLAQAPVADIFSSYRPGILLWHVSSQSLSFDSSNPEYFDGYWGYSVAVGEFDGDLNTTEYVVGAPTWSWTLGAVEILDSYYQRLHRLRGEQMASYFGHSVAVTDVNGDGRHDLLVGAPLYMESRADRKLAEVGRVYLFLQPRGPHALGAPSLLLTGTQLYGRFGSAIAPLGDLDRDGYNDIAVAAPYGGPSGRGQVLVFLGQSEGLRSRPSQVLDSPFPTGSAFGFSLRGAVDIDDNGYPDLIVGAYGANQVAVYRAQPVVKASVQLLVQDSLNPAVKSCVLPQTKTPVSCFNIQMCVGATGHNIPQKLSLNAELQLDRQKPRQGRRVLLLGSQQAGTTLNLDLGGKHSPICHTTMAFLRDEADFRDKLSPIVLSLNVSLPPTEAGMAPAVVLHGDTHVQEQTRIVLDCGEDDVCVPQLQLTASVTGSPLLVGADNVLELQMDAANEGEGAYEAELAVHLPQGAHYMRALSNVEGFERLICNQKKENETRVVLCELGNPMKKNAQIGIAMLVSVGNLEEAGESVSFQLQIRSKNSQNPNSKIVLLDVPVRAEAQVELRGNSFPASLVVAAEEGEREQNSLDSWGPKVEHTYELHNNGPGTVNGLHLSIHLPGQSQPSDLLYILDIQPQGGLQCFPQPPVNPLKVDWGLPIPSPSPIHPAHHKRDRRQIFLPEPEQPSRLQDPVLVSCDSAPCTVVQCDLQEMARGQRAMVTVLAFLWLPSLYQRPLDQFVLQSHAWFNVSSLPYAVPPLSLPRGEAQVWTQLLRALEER
T4 sequence (P05106 27-718 limits assumed): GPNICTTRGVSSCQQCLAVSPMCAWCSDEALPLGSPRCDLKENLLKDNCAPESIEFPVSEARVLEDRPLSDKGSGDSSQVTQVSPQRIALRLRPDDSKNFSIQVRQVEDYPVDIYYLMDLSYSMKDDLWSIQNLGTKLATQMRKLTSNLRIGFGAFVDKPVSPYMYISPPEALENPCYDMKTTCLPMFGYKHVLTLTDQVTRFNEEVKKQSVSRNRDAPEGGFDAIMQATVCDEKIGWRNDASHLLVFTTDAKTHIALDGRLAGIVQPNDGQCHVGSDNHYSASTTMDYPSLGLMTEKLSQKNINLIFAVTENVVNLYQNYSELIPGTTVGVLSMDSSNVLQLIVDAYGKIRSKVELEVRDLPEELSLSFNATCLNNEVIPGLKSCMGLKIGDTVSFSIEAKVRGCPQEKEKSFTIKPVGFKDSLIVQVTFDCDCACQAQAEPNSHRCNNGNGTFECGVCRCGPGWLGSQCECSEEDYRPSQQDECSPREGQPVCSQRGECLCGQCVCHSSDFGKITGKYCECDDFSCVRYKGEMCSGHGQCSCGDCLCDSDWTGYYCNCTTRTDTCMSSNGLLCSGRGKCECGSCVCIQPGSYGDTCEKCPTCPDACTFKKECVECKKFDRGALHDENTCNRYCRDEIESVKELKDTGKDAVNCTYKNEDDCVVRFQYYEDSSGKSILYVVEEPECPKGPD
The assay is described as follows: ELISA competition assay, integrin αIIbβ3. It is filed as binding.

The target of assay [5] is T3, integrin αvβ3. Nature of the assay: ELISA competition assay, integrin αvβ3. It is filed as binding.
In assay [6] the target is T2, integrin αvβ6. The assay is described as follows: ELISA competition assay, integrin αvβ6 binding to LAP. The note with it: αvβ6 IC50, ELISA competition vs LAP; mean, n ≥ 3.
Another assay concerns the target integrin α5β1 (Homo sapiens, UniProt P05556+P08648). The assay is described as follows: ELISA competition assay, integrin α5β1. It is filed as binding.
A further assay has as its target integrin αvβ5 (Homo sapiens, UniProt P06756+P18084). Nature of the assay: ELISA competition assay, integrin αvβ5. It is filed as binding.
In the next assay the target is integrin αvβ1 (Homo sapiens, UniProt P05556+P06756). Nature of the assay: ELISA competition assay, integrin αvβ1. The assay is classed as binding.

Bridge positions count the residues as written; N and C are the ends. Peptide text beside a SMILES is read from it.

For `CC[C@H](C)[C@H](NC(=O)CNC(=O)[C@@H](NC(=O)[C@H](Cc1ccccc1)NC(=O)[C@H](Cc1ccc(O)cc1)NC(=O)[C@@H]1CCC(=O)NCC(=O)NCC(=O)N[C@@H](C)C(=O)NCC(=O)N[C@@H](Cc2cnc[nH]2)C(=O)N[C@@H](C(C)C)C(=O)N2CCC[C@H]2C(=O)N1)C(C)C)C(=O)NCC(=O)N[C@H](C(=O)N1CCC[C@H]1C(=O)N[C@H](C(=O)N[C@@H](CO)C(=O)N[C@@H](Cc1ccccc1)C(=O)N[C@@H](Cc1ccc(O)cc1)C(=O)NCC(=O)O)[C@@H](C)CC)[C@@H](C)O` [lassotide 1, MccJ25, reference compound] (GGAGHVPEYFVGIGTPISFYG-OH; lactam N-8), the half-maximal inhibitory concentration (IC50) at integrin αvβ8 [1], on integrin αvβ6 [2] and on integrin αvβ3 [3] was > 10000 nM each time.
As for `CC[C@H](C)[C@H](NC(=O)[C@@H]1CCCN1C(=O)[C@H](Cc1ccccc1)NC(=O)[C@H](CC(=O)O)NC(=O)CNC(=O)[C@H](CCCNC(=N)N)NC(=O)[C@@H](NC(=O)[C@H](Cc1ccccc1)NC(=O)[C@H](Cc1ccc(O)cc1)NC(=O)[C@@H]1CCC(=O)NCC(=O)NCC(=O)N[C@@H](C)C(=O)NCC(=O)N[C@@H](Cc2c[nH]cn2)C(=O)N[C@@H](C(C)C)C(=O)N2CCC[C@H]2C(=O)N1)C(C)C)C(=O)N[C@@H](CO)C(=O)N[C@@H](Cc1ccccc1)C(=O)N[C@@H](Cc1ccc(O)cc1)C(=O)NCC(=O)O` [lassotide 3] (GGAGHVPEYFVRGDFPISFYG-OH; lactam N-8; C-terminus assumed), the results for the IC50 at integrin αvβ8 [1], on integrin αvβ6 [2] and on integrin αvβ3 [3] were 295 nM, 253 nM and 1 nM, respectively.
For the compound `CC[C@H](C)[C@H](NC(=O)[C@@H]1CCCN1C(=O)[C@@H](NC(=O)[C@H](CC(C)C)NC(=O)[C@H](CC(=O)O)NC(=O)CNC(=O)[C@H](CCCNC(=N)N)NC(=O)[C@H](Cc1ccccc1)NC(=O)[C@H](Cc1ccc(O)cc1)NC(=O)[C@@H]1CCC(=O)NCC(=O)NCC(=O)N[C@@H](C)C(=O)NCC(=O)N[C@@H](Cc2c[nH]cn2)C(=O)N[C@@H](C(C)C)C(=O)N2CCC[C@H]2C(=O)N1)[C@@H](C)O)C(=O)N[C@@H](CO)C(=O)N[C@@H](Cc1ccccc1)C(=O)N[C@@H](Cc1ccc(O)cc1)C(=O)NCC(=O)O` [lassotide 7] (GGAGHVPEYFRGDLTPISFYG-OH; lactam N-8; C-terminus assumed), the figures for the IC50 on integrin αvβ8 [1], on integrin αvβ6 [2] and on integrin αvβ3 [3] were 485 nM, 2040 nM and 571 nM, respectively.
In the same order, the values of `CC[C@H](C)[C@H](NC(=O)[C@H](CC(C)C)NC(=O)[C@H](CC(=O)O)NC(=O)CNC(=O)[C@H](CCCNC(=N)N)NC(=O)CNC(=O)[C@@H](NC(=O)[C@H](Cc1ccccc1)NC(=O)[C@H](Cc1ccc(O)cc1)NC(=O)[C@@H]1CCC(=O)NCC(=O)NCC(=O)N[C@@H](C)C(=O)NCC(=O)N[C@@H](Cc2c[nH]cn2)C(=O)N[C@@H](C(C)C)C(=O)N2CCC[C@H]2C(=O)N1)C(C)C)C(=O)N[C@@H](CO)C(=O)N[C@@H](Cc1ccccc1)C(=O)N[C@@H](Cc1ccc(O)cc1)C(=O)NCC(=O)O` [lassotide 8] (GGAGHVPEYFVGRGDLISFYG-OH; lactam N-8; C-terminus assumed) are 466 nM, 478 nM and 2560 nM.
For `CC[C@H](C)[C@H](NC(=O)[C@@H]1CCCN1C(=O)[C@@H](NC(=O)[C@H](CCCNC(=N)N)NC(=O)CNC(=O)[C@H](CC(=O)O)NC(=O)[C@H](CC(C)C)NC(=O)[C@H](Cc1ccccc1)NC(=O)[C@H](Cc1ccc(O)cc1)NC(=O)[C@@H]1CCC(=O)NCC(=O)NCC(=O)N[C@@H](C)C(=O)NCC(=O)N[C@@H](Cc2c[nH]cn2)C(=O)N[C@@H](C(C)C)C(=O)N2CCC[C@H]2C(=O)N1)[C@@H](C)O)C(=O)N[C@@H](CO)C(=O)N[C@@H](Cc1ccccc1)C(=O)N[C@@H](Cc1ccc(O)cc1)C(=O)NCC(=O)O` [lassotide 9] (GGAGHVPEYFLDGRTPISFYG-OH; lactam N-8; C-terminus assumed) the same measures were 1300 nM, > 10000 nM and > 10000 nM.
In the same order, the values of `CC[C@H](C)[C@H](NC(=O)[C@@H]1CCCN1C(=O)[C@H](CC(C)C)NC(=O)[C@H](CC(=O)O)NC(=O)[C@@H]1CCCN1C(=O)[C@H](CCCNC(=N)N)NC(=O)[C@@H](NC(=O)[C@H](Cc1ccccc1)NC(=O)[C@H](Cc1ccc(O)cc1)NC(=O)[C@@H]1CCC(=O)NCC(=O)NCC(=O)N[C@@H](C)C(=O)NCC(=O)N[C@@H](Cc2c[nH]cn2)C(=O)N[C@@H](C(C)C)C(=O)N2CCC[C@H]2C(=O)N1)C(C)C)C(=O)N[C@@H](CO)C(=O)N[C@@H](Cc1ccccc1)C(=O)N[C@@H](Cc1ccc(O)cc1)C(=O)NCC(=O)O` [lassotide 10] (GGAGHVPEYFVRPDLPISFYG-OH; lactam N-8; C-terminus assumed) are > 10000 nM, > 10000 nM and > 10000 nM.
In the case of `CC[C@H](C)[C@H](NC(=O)CNC(=O)[C@@H](NC(=O)[C@H](Cc1ccccc1)NC(=O)[C@H](Cc1ccc(O)cc1)NC(=O)[C@@H]1CCC(=O)NCC(=O)NCC(=O)N[C@@H](CCCNC(=N)N)C(=O)NCC(=O)N[C@@H](CC(=O)O)C(=O)N[C@@H](CC(C)C)C(=O)N2CCC[C@H]2C(=O)N1)C(C)C)C(=O)NCC(=O)N[C@H](C(=O)N1CCC[C@H]1C(=O)N[C@H](C(=O)N[C@@H](CO)C(=O)N[C@@H](Cc1ccccc1)C(=O)N[C@@H](Cc1ccc(O)cc1)C(=O)NCC(=O)O)[C@@H](C)CC)[C@@H](C)O` [lassotide 11] (GGRGDLPEYFVGIGTPISFYG-OH; lactam N-8; C-terminus assumed), the IC50 at integrin αvβ8 [1], at integrin αvβ6 [2] and at integrin αvβ3 [3] was > 10000 nM each time.
As for `CC(C)C[C@H](NC(=O)[C@H](CC(=O)O)NC(=O)CNC(=O)[C@H](CCCNC(=N)N)NC(=O)[C@@H](NC(=O)[C@H](Cc1ccccc1)NC(=O)[C@H](Cc1ccc(O)cc1)NC(=O)[C@@H]1CCC(=O)NCC(=O)NCC(=O)N[C@@H](CCCCN)C(=O)NCC(=O)N[C@@H](Cc2c[nH]cn2)C(=O)N[C@@H](C(C)C)C(=O)N2CCC[C@H]2C(=O)N1)C(C)C)C(=O)N[C@@H](CCC(N)=O)C(=O)N[C@@H](CO)C(=O)N[C@@H](Cc1ccccc1)C(=O)N[C@@H](Cc1ccc(O)cc1)C(=O)NCC(=O)O` [lassotide 37] (GGKGHVPEYFVRGDLQSFYG-OH; lactam N-8; C-terminus assumed), the IC50 on integrin αvβ8 [4] was 9 nM; at integrin α8β1, > 10000 nM; at integrin αIIbβ3 it was 394 nM; on integrin αvβ3 [5], 186 nM; on integrin αvβ6 [6] it was 3.1 nM; at integrin α5β1, 944 nM. Also, the half-inhibitory concentration (IC50) was > 10000 nM on integrin αvβ5 and 21 nM at integrin αvβ1.

One may read the IC50 as the concentration needed to halve the response being measured. A low value points to higher potency.
